Results published in patent US7858796B2, “Chemical compounds” (Glaxo Group Limited, priority 2004, dated 2010).

System: human monocyte stimulated cytokine production (TNF-α)
Assay: Monocyte Assay (LPS-stimulated TNF-α production)
Type: cell-based
Conditions: human CD14+ monocytes, 200 ng/mL LPS, 24 hrs, TNF-α by ELISA
Protocol: Effect of IKK-β inhibition on human monocyte stimulated cytokine production was assessed as follows: Monocytes were isolated from heparinized whole blood by Ficoll gradient, followed by purification of CD14+ cells using MACS magnetic cell separation beads. Isolated monocytes were then adhered to 96-well culture plates at 1×10^6 cells/mL in RPMI 1640 10% FBS (JRH Biosciences, Lenexa Kans.) for 2 h. to further enrich the monocyte population. The media was then removed, cells washed once with RPMI 1640, and 0.125 mL RPMI 1640 10% FBS was added to the wells. Test compounds are added to the wells 30 minutes prior to stimulation with a final vehicle concentration of 0.1% DMSO. Monocytes were activated by the addition of 200 ng/mL endotoxin (LPS; E. coli serotype 026:B6) (Sigma, St. Louis, Mo.) and incubated for 24 hrs at 37 C. Cell-free supernates were analyzed by ELISA for TNF-α using Pharmingen matched pair Abs. Viability of the cells was determined by10% trypan blue exclusion.

SMILES | IC50 [µM]
NC(=O)c1cc(-c2ccc(CO)s2)cc2c(C3CCN(S(=O)(=O)CCCN4CCCC4)CC3)c[nH]c12 [Example 63, 5-[5-(hydroxymethyl)-2-thienyl]-3-(1-{[3-(1-pyrrolidinyl)propyl]sulfonyl}-4-piperidinyl)-1H-indole-7-carboxamide] | < 10
NC(=O)c1cc(-c2cccs2)cc2c(C3CCN(S(=O)(=O)CCCN4CCC(O)CC4)CC3)c[nH]c12 [Example 14, 3-(1-{[3-(4-hydroxy-1-piperidinyl)propyl]sulfonyl}-4-piperidinyl)-5-(2-thienyl)-1-indole-7-carboxamide] | < 10
NC(=O)c1cc(-c2cccc(CO)c2)cc2c(C3CCN(S(=O)(=O)CCCN4CCCC4)CC3)c[nH]c12 [Example 83, 5-[3-(hydroxymethyl)phenyl]-3-(1-{[3-(1-pyrrolidinyl)propyl]sulfonyl}-4-piperidinyl)-1H-indole-7-carboxamide] | < 10
NC(=O)c1cc(-c2ccc(F)cc2)cc2c(C3CCN(S(=O)(=O)CCCN4CCCC4)CC3)c[nH]c12 [Example 75, 5-(4-fluorophenyl)-3-(1-{[3-(1-pyrrolidinyl)propyl]sulfonyl}-4-piperidinyl)-1H-indole-7-carboxamide] | < 10
NC(=O)c1cc(-c2cccs2)cc2c(C3CCN(S(=O)(=O)CCCNC4CCCC4)CC3)c[nH]c12 [Example 13, 3-(1-{[3-(cyclopentylamino)propyl]sulfonyl}-4-piperidinyl)-5-(2-thienyl)-1H-indole-7-carboxamide] | < 10
NC(=O)c1cc(-c2ccsc2)cc2c(C3CCN(S(=O)(=O)CCCN4CCOCC4)CC3)c[nH]c12 [Example 74, 3-(1-{[3-(4-morpholinyl)propyl]sulfonyl}-4-piperidinyl)-5-(3-thienyl)-1H-indole-7-carboxamide] | < 10
NC(=O)c1cc(-c2cccs2)cc2c(C3CCN(S(=O)(=O)CCCN4CCCC4)CC3)c[nH]c12 [Example 11, 3-(1-{[3-(1-pyrrolidinyl)propyl]sulfonyl}-4-piperidinyl)-5-(2-thienyl)-1 indole-7-carboxamide] | < 10
CN(C)CCS(=O)(=O)N1CCC(c2c[nH]c3c(C(N)=O)cc(-c4ccsc4)cc23)CC1 [Example 17, 3-(1-{[2-(dimethylamino)ethyl]sulfonyl}-4-piperidinyl)-5-(3-thienyl)-1H-indole-7-carboxamide] | < 10
CC(=O)Nc1nc(C)c(S(=O)(=O)N2CCC(c3c[nH]c4c(C(N)=O)cc(-c5ccccc5)cc34)CC2)s1 [Example 272, 3-(1-{[2-(acetylamino)-4-methyl-1,3-thiazol-5-yl]sulfonyl}-4-piperidinyl)-5-phenyl-1H-indole-7-carboxamide] | < 10
NC(=O)c1cc(-c2ccsc2)cc2c(C3CCN(S(=O)(=O)CCN4CCCC4)CC3)c[nH]c12 [Example 16, 3-(1-{[2-(1-pyrrolidinyl)ethyl]sulfonyl}-4-piperidinyl)-5-(3-thienyl)-1H-indole-7-carboxamide] | < 10
NC(=O)c1cc(-c2ccc(Cl)s2)cc2c(C3CCN(S(=O)(=O)CCCN4CCCC4)CC3)c[nH]c12 [Example 21, 5-(5-chloro-2-thienyl)-3-(1-{[3-(1-pyrrolidinyl)propyl]sulfonyl}-4-piperidinyl)-1H-indole-7-carboxamide] | < 10
CCNCc1cccc(-c2cc(C(N)=O)c3[nH]cc(C4CCN(S(=O)(=O)CCCN(C)C)CC4)c3c2)c1 [Example 96, 3-(1-{[3-(dimethylamino)propyl]sulfonyl}-4-piperidinyl)-5-{3-[(ethylamino)methyl]phenyl}-1H-indole-7-carboxamide] | < 10
NC(=O)c1cc(-c2ccsc2)cc2c(C3CCN(S(=O)(=O)CCNC4CCCC4)CC3)c[nH]c12 [Example 18, 3-(1-{[2-(cyclopentylamino)ethyl]sulfonyl}-4-piperidinyl)-5-(3-thienyl)-11 indole-7-carboxamide] | < 10
NC(=O)c1cc(-c2cccs2)cc2c(C3CCN(S(=O)(=O)CCCO)CC3)c[nH]c12 [Example 265, 3-{1-[(3-hydroxypropyl)sulfonyl]-4-piperidinyl}-5-(2-thienyl)-1H-indole-7-carboxamide] | < 10
CN(C)CCCS(=O)(=O)N1CCC(c2c[nH]c3c(C(N)=O)cc(-c4cccs4)cc23)CC1 [Example 10, 3-(1-{[3-(dimethylamino)propyl]sulfonyl}-4-piperidinyl)-5-(2-thienyl)-1 indole-7-carboxamide] | < 10
NC(=O)c1cc(-c2ccsc2)cc2c(C3CCN(S(=O)(=O)CCCN4CCCC4)CC3)c[nH]c12 [Example 8, 3-(1-{[3-(1-pyrrolidinyl)propyl]sulfonyl}-4-piperidinyl)-5-(3-thienyl)-1H-indole-7-carboxamide] | < 10
NC(=O)c1cc(-c2ccsc2)cc2c(C3CCN(S(=O)(=O)CCNC4CCC(O)CC4)CC3)c[nH]c12 (stereo not drawn) [Example 19, 3-[1-({2-[(4-hydroxycyclohexyl)amino]ethyl}sulfonyl)-4-piperidinyl]-5-(3-thienyl)-1H-indole-7-carboxamide] | < 10
NC(=O)c1cc(-c2ccsc2)cc2c(C3CCN(S(=O)(=O)CCCN4CCC(O)CC4)CC3)c[nH]c12 [Example 71, 3-(1-{[3-(4-hydroxy-1-piperidinyl)propyl]sulfonyl}-4-piperidinyl)-5-(3-thienyl)-1H-indole-7-carboxamide] | < 10

More lines, now with the values ahead:

IC50 [µM] | SMILES
< 10 | CC(C)(C)OC(=O)N1CCC(NCCCS(=O)(=O)N2CCC(c3c[nH]c4c(C(N)=O)cc(-c5ccccc5)cc34)CC2)CC1 [Example 108, 1,1-dimethylethyl 4-{[3-({4-[7-(aminocarbonyl)-5-phenyl-1H-indol-3-yl]-1-piperidinyl}sulfonyl)propyl]amino}-1-piperidinecarboxylate]
< 10 | NC(=O)c1cc(-c2ccccc2)cc2c(C3CCN(S(=O)(=O)c4cccs4)CC3)c[nH]c12 [Example 268, 5-phenyl-3-[1-(2-thienylsulfonyl)-4-piperidinyl]-1H-indole-7-carboxamide]
< 10 | CCOCCCS(=O)(=O)N1CCC(c2c[nH]c3c(C(N)=O)cc(-c4ccsc4)cc23)CC1 [Example 263, 3-(1-{[3-(ethyloxy)propyl]sulfonyl}-4-piperidinyl)-5-(3-thienyl)-1H-indole-7-carboxamide]
< 10 | Cc1noc(C)c1S(=O)(=O)N1CCC(c2c[nH]c3c(C(N)=O)cc(-c4ccccc4)cc23)CC1 [Example 277, 3-{1-[(3,5-dimethyl-4-isoxazolyl)sulfonyl]-4-piperidinyl}-5-phenyl-1H-indole-7-carboxamide]
< 10 | NC(=O)c1cc(-c2ccccc2)cc2c(C3CCN(S(=O)(=O)CCO)CC3)c[nH]c12 [Example 20, 3-{1-[(2-hydroxyethyl)sulfonyl]-4-piperidinyl}-5-phenyl-1H-indole-7-carboxamide]
< 10 | CN1CCN(CCCS(=O)(=O)N2CCC(c3c[nH]c4c(C(N)=O)cc(-c5ccccc5)cc34)CC2)CC1 [Example 4, 3-(1-{[3-(4-methyl-1-piperazinyl)propyl]sulfonyl}-4-piperidinyl)-5-phenyl-1H-indole-7-carboxamide]
< 10 | CONCCS(=O)(=O)N1CCC(c2c[nH]c3c(C(N)=O)cc(-c4ccccc4)cc23)CC1 [Example 215, 3-[1-({2-[(methyloxy)amino]ethyl}sulfonyl)-4-piperidinyl]-5-phenyl-1H-indole-7-carboxamide]
< 10 | CCOCCS(=O)(=O)N1CCC(c2c[nH]c3c(C(N)=O)cc(-c4ccccc4)cc23)CC1 [Example 175, 3-(1-{[2-(ethyloxy)ethyl]sulfonyl}-4-piperidinyl)-5-phenyl-1H-indole-7-carboxamide]
< 10 | CC(O)C(C)OCCCS(=O)(=O)N1CCC(c2c[nH]c3c(C(N)=O)cc(-c4ccccc4)cc23)CC1 (stereo not drawn) [Example 165, 3-[1-({3-[(2-hydroxy-1-methylpropyl)oxy]propyl}sulfonyl)-4-piperidinyl]-5-phenyl-1H-indole-7-carboxamide]
< 10 | CCOCCCS(=O)(=O)N1CCC(c2c[nH]c3c(C(N)=O)cc(-c4ccccc4)cc23)CC1 [Example 176, 3-(1-{[3-(ethyloxy)propyl]sulfonyl}-4-piperidinyl)-5-phenyl-1H-indole-7-carboxamide]
< 10 | Cc1nn(C)c(Cl)c1S(=O)(=O)N1CCC(c2c[nH]c3c(C(N)=O)cc(-c4ccccc4)cc23)CC1 [Example 273, 3-{1-[(5-chloro-1,3-dimethyl-1H-pyrazol-4-yl)sulfonyl]-4-piperidinyl}-5-phenyl-1H-indole-7-carboxamide]
< 10 | NC(=O)c1cc(-c2ccccc2)cc2c(C3CCN(S(=O)(=O)CCCN4CCCC4)CC3)c[nH]c12 [Example 7, 5-phenyl-3-(1-{[3-(1-pyrrolidinyl)propyl]sulfonyl}-4-piperidinyl)-1H-indole-7-carboxamide]
< 10 | COCCS(=O)(=O)N1CCC(c2c[nH]c3c(C(N)=O)cc(-c4ccccc4)cc23)CC1 [Example 68, 3-(1-{[2-(methyloxy)ethyl]sulfonyl}-4-piperidinyl)-5-phenyl-1 indole-7-carboxamide]
< 10 | NC(=O)c1cc(-c2ccccc2)cc2c(C3CCN(S(=O)(=O)CCCOCC4CC4)CC3)c[nH]c12 [Example 164, 3-[1-({3-[(cyclopropylmethyl)oxy]propyl}sulfonyl)-4-piperidinyl]-5-phenyl-1H-indole-7-carboxamide]
< 10 | CN(C)CCCS(=O)(=O)N1CCC(c2c[nH]c3c(C(N)=O)cc(-c4cccc(CO)c4)cc23)CC1 [Example 76, 3-(1-{[3-(dimethylamino)propyl]sulfonyl}-4-piperidinyl)-5-[3-(hydroxymethyl)phenyl]-1H-indole-7-carboxamide]
